Results on 29 substances are retold here after US8178506B2, “Oligomeric compounds and compositions for use in modulation of small non-coding RNAs” (Regulus Therapeutics Inc., priority 2003, dated 2012).

In the oligonucleotide strings, read from the 5' end, every base follows the letter of its sugar. An asterisk marks phosphorothioate; unmarked linkages are phosphodiester. Other units and linkages are bracketed, terminal groups are in braces. A string of capitals states the bases alone. e = 2'-O-(2-methoxyethyl) (MOE); [5mC] = 5-methylcytosine; d = 2'-deoxy (DNA)

Data set [1] has as its system IGFBP-1. Put plainly: IGFBP-1 mRNA expression in HepG2 cells. Type of data set: cell-based, human. To be noted: for IGFBP1 mRNA expression: Experiment 2, insulin treated: HepG2 cells transfected with oligomeric compound, 1 nM insulin for four hours, UTC + 1 nM insulin = 100; for IGFBP1 mRNA: four hours, UTC = 100.
The test system of data set [2] is BJ, B16-F10, T47D, T47Dp53 and HeLa cells. Put plainly: Cell cycle assay (propidium iodide flow cytometry), cell line panel. Type of data set: cell-based. To be noted: for G1 (percentage of cells in phase of the cell cycle) / G2/M (percentage of cells in phase of the cell cycle) / S (percentage of cells in phase of the cell cycle) / SubG1 (percentage of cells in phase of the cell cycle) / aneuploid (percentage of cells): 150 nM oligomeric compound, 4.5 μg/ml LIPOFECTIN, after 72 hours, propidium iodide flow cytometry.

Where [3] appears, read: HepG2 cells, Experiment 1, basal (no insulin).
Setting [4] is: Experiment 1, basal (no insulin), HepG2, 100 nM oligomeric compound.
Where [5] appears, read: Experiment 2, 1 nM insulin treated, HepG2, 100 nM oligomeric compound.

“327920 (antisense eG*eA*eG*eA*e[5mC]*e[5mC]*e[5mC]*eA*eG*eT*eA*eG*e[5mC]*e[5mC]*eA*eG*eA*eT*eG*eT*eA*eG*e[5mC]*eT) [compound 327920]”: in data set [1], the “IGFBP1 mRNA expression” value amounted to 267. The “IGFBP1 mRNA” value in data set [1] (setting [3]) was determined as 165.
In the case of “328115 (antisense eA*eG*eA*eA*eG*eG*eT*eG*eG*eG*eG*eA*eG*e[5mC]*eA*eG*e[5mC]*eG*eT*e[5mC]*eA) [compound 328115]”, the “IGFBP1 mRNA expression” value in data set [1] turned out to be 120.
With “327887 (antisense eG*e[5mC]*eG*eA*e[5mC]*e[5mC]*eA*eT*eG*eG*e[5mC]*eT*eG*eT*eA*eG*eA*e[5mC]*eT*eG*eT*eT*eA) [compound 327887]”, the “IGFBP1 mRNA” value in data set [1] (setting [3]) is 119.
With “328125 (antisense eT*eA*eT*eG*eA*eA*eA*eT*eG*e[5mC]*e[5mC]*eA*eG*eA*eG*e[5mC]*eT*eG*e[5mC]*e[5mC]*eA) [compound 328125]”, the “IGFBP1 mRNA expression” value in data set [1] was found to be 216.
For “327899 (antisense e[5mC]*eA*eG*eT*eG*eA*eA*eT*eT*e[5mC]*eT*eA*e[5mC]*e[5mC]*eA*eG*eT*eG*e[5mC]*e[5mC]*eA*eT*eA) [compound 327899]”, the “IGFBP1 mRNA” value in data set [1] (setting [3]) is recorded as 105.
As for “327954 (antisense eA*e[5mC]*eA*eA*eA*eG*eT*eT*e[5mC]*eT*eG*eT*eG*eA*eT*eG*e[5mC]*eA*e[5mC]*eT*eG*eA) [compound 327954]”, the results for the “IGFBP-1 (% UTC)” value in data set [1] (setting [4]) and in data set [1] (setting [5]) were 118 % UTC and 120 % UTC, respectively.
Turning to “327888 (antisense eA*eA*eT*eG*e[5mC]*e[5mC]*e[5mC]*e[5mC]*eT*eA*eA*eA*eA*eA*eT*e[5mC]*e[5mC]*eT*eT*eA*eT) [compound 327888]”, in data set [2], the “G1 (percentage of cells in phase of the cell cycle)” value came out at 53.7%, the “G2/M (percentage of cells in phase of the cell cycle)” value was found to be 16.7%, the “S (percentage of cells in phase of the cell cycle)” value is 29.5% and the “SubG1 (percentage of cells in phase of the cell cycle)” value is 13.3%. Further, the “aneuploid (percentage of cells)” value in data set [2] is reported as 12.9%.
In the case of “327880 (antisense eA*e[5mC]*eA*eA*eA*eT*eT*e[5mC]*eG*eG*eT*eT*e[5mC]*eT*eA*e[5mC]*eA*eG*eG*eG*eT*eA) [compound 327880]”, the “IGFBP-1 (% UTC)” value in data set [1] (setting [4]) is listed as 137 % UTC; in data set [1] (setting [5]) it was 136 % UTC.
“TGAGCTACAGTGCTTCATCTCA [ISIS 327901] (chemistry not given here) [uniform 2′-MOE PS; targets mir-143]”: the “percentage of cells in the G2/M phase” value in data set [2] (150 nM, 72 hours (Table 29)) is recorded as “increased percentage of cells in the G2/M phase”.
Consider “341806 (antisense GCCAATATTTCTGTGCTGCTA; all 2'-MOE, all phosphorothioate, methylation of C not given here) [compound 341806]”, for which the “IGFBP1 mRNA” value in data set [1] (setting [3]) is reported as 128.
On the same count and under the same terms, the same measure for “327895 (antisense eA*e[5mC]*eA*eA*eA*e[5mC]*eA*e[5mC]*e[5mC]*eA*eT*eT*eG*eT*e[5mC]*eA*e[5mC]*eA*e[5mC]*eT*e[5mC]*e[5mC]*eA) [compound 327895]”: 108.
Regarding “341803 (antisense CCACACACTTCCTTACATTCCA; all 2'-MOE, all phosphorothioate, methylation of C not given here) [compound 341803]”, the “IGFBP1 mRNA” value in data set [1] (setting [3]) is 107.
Turning to “341805 (antisense ACCCTTATCAGTTCTCCGTCCA; all 2'-MOE, all phosphorothioate, methylation of C not given here) [compound 341805]”, in data set [1] (setting [3]), the “IGFBP1 mRNA” value is recorded as 105.
On the same count and under the same terms, the same measure for “341807 (antisense CTGGGACTTTGTAGGCCAGTT; all 2'-MOE, all phosphorothioate, methylation of C not given here) [compound 341807]”: 129.
As to “328759 (antisense eG*eA*eG*eG*eG*dA*dT*dT*dG*dT*dA*dT*dG*dA*dA*e[5mC]*eA*eT*e[5mC]*eT) [compound 328759]”, the “IGFBP-1 (% UTC)” value in data set [1] (Experiment 3, basal (no insulin), HepG2 cells, 48 hours post-transfection) is listed as 356 % UTC; in data set [1] (Experiment 4, insulin-sensitization: HepG2 cells treated with 1 nM insulin for four hours, 48 h post-transfection, mRNA by real-time PCR) it was 212 % UTC.
“327885 (antisense eA*e[5mC]*eT*eA*e[5mC]*e[5mC]*eT*eG*e[5mC]*eA*e[5mC]*eT*eG*eT*eA*eA*eG*e[5mC]*eA*e[5mC]*eT*eT*eT*eG) [compound 327885]”: the “IGFBP1 mRNA” value in data set [1] (setting [3]) is recorded as 161.
Consider “327897 (antisense eA*e[5mC]*eA*eG*eG*e[5mC]*e[5mC]*eG*eG*eG*eA*e[5mC]*eA*eA*eG*eT*eG*e[5mC]*eA*eA*eT*eA) [compound 327897]”, for which the “IGFBP1 mRNA expression” value in data set [1] came out at 243. In addition, the “IGFBP1 mRNA” value in data set [1] (setting [3]) is reported as 163.
In the case of “327918 (antisense e[5mC]*eT*eA*eG*eT*eA*e[5mC]*eA*eT*e[5mC]*eA*eT*e[5mC]*eT*eA*eT*eA*e[5mC]*eT*eG*eT*eA) [compound 327918]”, the “IGFBP1 mRNA expression” value in data set [1] is recorded as 81. In data set [1] (setting [3]), the “IGFBP1 mRNA” value is given as 95.
As to “327886 (antisense e[5mC]*eG*e[5mC]*eG*eT*eA*e[5mC]*e[5mC]*eA*eA*eA*eA*eG*eT*eA*eA*eT*eA*eA*eT*eG) [compound 327886]”, the “IGFBP1 mRNA” value in data set [1] (setting [3]) is 176.
Consider “327923 (antisense eG*eA*eA*eA*eG*eA*eG*eA*e[5mC]*e[5mC]*eG*eG*eT*eT*e[5mC]*eA*e[5mC]*eT*eG*eT*eG*eA) [compound 327923]”, for which, in data set [1], the “IGFBP1 mRNA expression” value is on record as 119. Also, the “IGFBP1 mRNA” value in data set [1] (setting [3]) is reported as 116.
With “328382 (e[5mC]*eA*eG*eA*e[5mC]*dT*d[5mC]*d[5mC]*d[5mC]*dA*dA*d[5mC]*dT*dG*dA*e[5mC]*e[5mC]*eA*eG*eA) [compound 328382]”, in data set [2], the “G1 (percentage of cells in phase of the cell cycle)” value was 59.8%, the “G2/M (percentage of cells in phase of the cell cycle)” value worked out at 14.4%, the “S (percentage of cells in phase of the cell cycle)” value worked out at 25.7% and the “SubG1 (percentage of cells in phase of the cell cycle)” value came out at 2.9%. The “aneuploid (percentage of cells)” value in data set [2] was 14.8%.
The like results for “328362 (eT*eG*eT*eG*eT*dT*dT*dT*d[5mC]*dT*dG*dA*d[5mC]*dT*d[5mC]*eA*eG*eT*e[5mC]*eA) [compound 328362]” were, in that order, 51.2%, 15.1%, 33.6%, 9.1% and 12.9%.
As for “327904 (antisense eA*e[5mC]*eT*e[5mC]*eA*e[5mC]*e[5mC]*eG*eA*e[5mC]*eA*eG*e[5mC]*eG*eT*eT*eG*eA*eA*eT*eG*eT*eT) [compound 327904]”, in data set [2], the “G1 (percentage of cells in phase of the cell cycle)” value is reported as 54.4%, the “G2/M (percentage of cells in phase of the cell cycle)” value is listed as 16.2%, the “S (percentage of cells in phase of the cell cycle)” value is recorded as 29.5% and the “SubG1 (percentage of cells in phase of the cell cycle)” value is given as 8.6%. Moreover, in data set [2], the “aneuploid (percentage of cells)” value was 15.6%.
“327951 (antisense e[5mC]*eA*e[5mC]*eA*eA*eA*e[5mC]*e[5mC]*eA*eT*eT*eA*eT*eG*eT*eG*e[5mC]*eT*eG*e[5mC]*eT*eA) [compound 327951]”: in data set [2], the “G1 (percentage of cells in phase of the cell cycle)” value is 60.9%, the “G2/M (percentage of cells in phase of the cell cycle)” value is recorded as 14.3%, the “S (percentage of cells in phase of the cell cycle)” value is 24.8% and the “SubG1 (percentage of cells in phase of the cell cycle)” value is 4.3%. In addition, the “aneuploid (percentage of cells)” value in data set [2] came to 16.7%.
The corresponding values for “327928 (antisense eA*eA*e[5mC]*e[5mC]*eG*eA*eT*eT*eT*e[5mC]*eA*eG*eA*eT*eG*eG*eT*eG*e[5mC]*eT*eA*eG) [compound 327928]” are 56%, 16%, 27.9%, 6.6% and 15.9%.
The corresponding values for “327902 (antisense eG*eG*e[5mC]*eT*eG*eT*e[5mC]*eA*eA*eT*eT*e[5mC]*eA*eT*eA*eG*eG*eT*e[5mC]*eA*eG) [compound 327902]” are 50.7%, 15.3%, 33.9%, 10.6% and 13.4%.
The corresponding values for “327910 (antisense eT*eG*eA*eT*eA*eG*e[5mC]*e[5mC]*e[5mC]*eT*eG*eT*eA*e[5mC]*eA*eA*eT*eG*e[5mC]*eT*eG*e[5mC]*eT) [compound 327910]” are 49.5%, 17.5%, 33%, 9.3% and 13.1%.
Regarding “327907 (antisense eA*eG*e[5mC]*e[5mC]*eT*eA*eT*e[5mC]*e[5mC]*eT*eG*eG*eA*eT*eT*eA*e[5mC]*eT*eT*eG*eA*eA) [compound 327907]”, in data set [2], the “G1 (percentage of cells in phase of the cell cycle)” value is given as 49.5%, the “G2/M (percentage of cells in phase of the cell cycle)” value is listed as 17.6%, the “S (percentage of cells in phase of the cell cycle)” value came out at 32.8% and the “SubG1 (percentage of cells in phase of the cell cycle)” value stood at 17.8%. Also, the “aneuploid (percentage of cells)” value in data set [2] is 17.8%.
As to “327906 (antisense eT*e[5mC]*eA*eT*eA*eG*e[5mC]*e[5mC]*e[5mC]*eT*eG*eT*eA*e[5mC]*eA*eA*eT*eG*e[5mC]*eT*eG*e[5mC]*eT) [compound 327906]”, in data set [2], the “G1 (percentage of cells in phase of the cell cycle)” value is 46.1%, the “G2/M (percentage of cells in phase of the cell cycle)” value turned out to be 20.9%, the “S (percentage of cells in phase of the cell cycle)” value was found to be 33% and the “SubG1 (percentage of cells in phase of the cell cycle)” value is reported as 15.2%. In addition, in data set [2], the “aneuploid (percentage of cells)” value stood at 15.8%.
